Patent publication US20040092571A1, “Pharmaceutical composition” (SANKYO COMPANY, LIMITED, priority 2000, published 2004)
Counter-ions that a name gives are not always drawn.

What was measured:
cholesterol-fed rabbits = assay: Effect on the development of atherosclerotic lesion in cholesterol-fed rabbits with chronic endothelial injury; assay type: in vivo, New Zealand White rabbits; conditions: for Effect on ECD (in words) / Effect on atheroclerotic area of the femoral lesion (in words): Table 2; for The ratio of Atheroclerotic area: femoral artery, oral for 8 weeks after surgery, control 57.4; for The ratio of Atheroclerotic area / ECD (extracellular lipid deposits): Pravastatin 10 mg/kg, Compound A 5 mg/kg; for ECD (extracellular lipid deposits): right femoral artery sections, Elastica-Masson's stain, oral for 8 weeks, control 15.5
Source text: Male New Zealand White rabbits (Kitayama Labes, Japan) weighing 1.0-1.5 kg were meal-fed a chow diet (RC-4, Oriental Bioservice, Japan) supplemented with 0.5% cholesterol, 3% peanut oil, and 3% coconut oil diet for a total of 10 weeks.
The dietary regimen consisted of feeding the cholesterol/fat diet at 40 g for the first 2 weeks, 50 g for 4 weeks, 60 g for final 4 weeks. After 2 week of diet initiation, a chronic endothelial injury was induced in the abdominal aorta and right femoral artery by surgically inserting a sterile, nylon monofilament through the medical saphenous artery of the right leg to the level of the diaphragm. The monofilament was secured and maintained in place for remaining 8 weeks of the study. Animals were randomized on the basis of their total cholesterol levels after 2 week of cholesterol/fat diet. The HMG-CoA reductase inhibitor and the ACAT inhibitor were orally administered both alone and in combination for 8 weeks after surgery.
Femoral artery was photographed for the morphometric analyses by digital camera (Coolpix 990, trade name: product of […].) connected with a computer. The severity of aortic atherosclerosis was estimated as a ratio of surface area of lesion to the intimal surface area of aorta by Photo-retouch software (“Adobe Photoshop 5.0” trade name: product of Adobe Systems Inc.) and the Scion image NIH Imaging Software (“Scion Image 1.61 c MacOs” product of Scion Corporation). (ii) Extracellular Lipid Deposits
Rabbits were anesthetized with intravenous injection of sodium pentobarbital (25 mg/kg) and perfused with saline by using a perfusion apparatus at a constant pressure of 100 mmHg. After perfusion, the aortas were excised, photographed. Analysis of lesional cross-sections on aortas was examined at the right femoral artery. Right femoral artery was fixed in Methanol Carnoy's fixative for at least 24 hours. The segments were embedded in paraffin, and sectioned at 5 μm. Five ribbons of four serilal sections from each segment were cut at 80 μm intervals. A section from each ribbon was treated with Elastica-Masson's stain.
Digital image of each section was collected using a digital camera (Fujix CCD camera system HC-2500: product of Fuji Photo Film Co., Ltd.) attached to Leica microscope at a magnification of 2.5×. The area of each lesional component was extracted using Adobe Photoshop 5.0 (Adobe) for estimation of the quality of the lesions. In sections treated with Elastica-Masson's stain, the region with light green were identified as extracellular matrix (ECM), and extracellular vacuoles and lacunae (white regions) were defined as extracellular lipid deposits (ECD). ECD was measured by average of value dividing area of lesional component by area of lesion using Adobe Photoshop 5.0 and Scion Image 1.61 MacOs.

F1b hamsters = assay: Lipid lowering action in cholesterol/coconut oil-fed F1b hamsters (serum lipids by an enzyme method); assay type: in vivo, hamster; conditions: for Cholesterol concentration TC (total cholesterol) / Atherogenic index (VLDL+LDL cholesterol/HDL cholesterol) / Cholesterol concentration HDL / Cholesterol concentration VLDL + LDL: serum, oral once a day for 7 days, Pravastatin 3 mg/kg, Compound A 30 mg/kg; for Cholesterol concentration TC (total cholesterol): 17 h fast after final dose, control 253.0; for Atherogenic index (VLDL+LDL cholesterol/HDL cholesterol): control 3.0; for Cholesterol concentration HDL: control 63.6; for Cholesterol concentration VLDL + LDL: control 189.4
Experimental: Eleven-week-old male F1b hamsters were used in the experiment. The animals were fed in metal cages and allowed free access to food, which contained 0.05% cholesterol and 10% coconut oil, and water. The active agents were administered orally in the form of a suspension in 5% gum arabic solution once a day for 7 days. The animals were fasted for 17 hours after the final administration of active agents at which time blood samples were collected under anesthesia. Serum lipids were measured by an enzyme method. In the table, TC indicates total cholesterol, VLDL indicates very low density lipoprotein, LDL indicates low density lipoprotein, HDL indicates high density lipoprotein and compound A indicates N-(1-octyl-5-carboxymethyl-4,6-dimethylindolin-7-yl)-2,2-dimethylpropanamide sulfate.

| Compound | Effect on ECD (in words) (cholesterol-fed rabbits) | Effect on atheroclerotic area of the femoral lesion (in words) (cholesterol-fed rabbits) | The ratio of Atheroclerotic area (cholesterol-fed rabbits) | ECD (extracellular lipid deposits) (cholesterol-fed rabbits) | Cholesterol concentration TC (total cholesterol) (F1b hamsters) | Atherogenic index (VLDL+LDL cholesterol/HDL cholesterol) (F1b hamsters) | Cholesterol concentration HDL (F1b hamsters) | Cholesterol concentration VLDL + LDL (F1b hamsters) | Effect on atherogenic index (in words) (F1b hamsters; summary of Table 1) | Effect on serum VLDL+LDL cholesterol level (in words) (F1b hamsters; summary of Table 1) | Effect on total serum cholesterol level (in words) (F1b hamsters; summary of Table 1) |
| --- | --- | --- | --- | --- | --- | --- | --- | --- | --- | --- | --- |
| CCCCCCCCN1CCc2c(C)c(CC(=O)O)c(C)c(NC(=O)C(C)(C)C)c21 [Compound A, N-(1-octyl-5-carboxymethyl-4,6-dimethylindolin-7-yl)-2,2-dimethylpropanamide sulfate] | reduced | reduced | 45.8% | 10.7 mm^2 | 170.9 | 1.8 | 62.0 | 109.0 | lowered | decreased | decreased |
| CC[C@H](C)C(=O)O[C@H]1C[C@H](O)C=C2C=C[C@H](C)[C@H](CC[C@@H](O)C[C@@H](O)CC(=O)O)[C@H]21 [Pravastatin, (+)-(3R,5R)-3,5-dihydroxy-7-[(1S,2S,6S,8S,8aR)-6-hydroxy-2-methyl-8-[(S)-2-methylbutyryloxy]-1,2,6,7,8,8a-hexahydro-1-napthyl]heptanoic acid, reference compound] | no effect | no effect | 58.3% | 16.6 mm^2 | 244.0 | 2.3 | 73.3 | 170.6 | – | – | – |
